According to patent US11779597B2, “Method of treating Parkinson's and other neurodegenerative diseases” (Vector Vitale IP LLC, priority 2019, dated 2023):

Tests used:
[1] = tested on: human T-lymphocytes (CD3+); settings: cited from earlier work
[2] = tested on: normal human fibroblasts; test: Metabolic activity of cells (MTT assay); type: cell-based; settings: 72 hours, control = 100% of living cells
Experimental: In vitro assessment of the effects of E2+^85Rbe on metabolic activity of normal human fibroblasts (MTT assay).
Proliferative and metabolic activity of cells was determined by the colorimetric method.
The metabolic activity of the cells (i.e., the number of living cells) was assessed by MTT staining.
24 hours after the last reagent, the cells were seeded at a concentration of 1×10^4 cells/well in wells of a 96-well plate in complete DMEM nutrient medium with 10% FBS and […]. The cells were cultured in a humidified atmosphere at 5% CO2 and 37° C. for 24 hours. After 24 hours, various doses of experimental substances were added to the respective wells. The cells were incubated at 37° C. and 5% CO2 for an additional 72 hours.
Upon completion of the incubation with the preparations, the proliferative and metabolic activity of the cells in the experiment was evaluated by the colorimetric method by staining MTT cells:
10 μl of the MTT solution (5 mg/ml of the dye in phosphate-buffered saline) was added to each well of the plate; the plate was incubated in a CO2 incubator at 37° C. for 3 hours. After that, the medium was removed from the wells, and the formed tetraformazan crystals were dissolved in 100 μl of dimethylsulfoxide.
When MTT was used, the results were evaluated using a multi-well spectrophotometer at an excitation wavelength of 540 nm. The percentage of viable cells was calculated by the formula: IR=(A 540(experiment)/A540(control))×100%.

[3] = according to the published data

SMILES: [Cl-].[Cl-].[Zn+2] [zinc chloride]
- proliferation of unstimulated T-cells [1, 3]: has no effect
- costimulatory effect on T-cell proliferation ([1]; published data): costimulatory effects

SMILES: [Cl-].[Rb+] [rubidium chloride]
- proliferation of both resting and activated lymphocytes [1, 3]: inhibitory effect

SMILES: Cc1ccc(S(=O)(=O)[N-]c2ccccc2NC(=O)c2ccccc2)cc1.[Rb+] [E2+Rb reference drug]
- Metabolic activity of cells, % ([2]; 2.5 μg/ml): 128.2 ± 8.3%
- Metabolic activity of cells, % ([2]; 5 μg/ml): 103.4 ± 9.3%
- Metabolic activity of cells, % ([2]; 10 μg/ml): 104.6 ± 14.2%
- Metabolic activity of cells, % ([2]; 20 μg/ml): 96.8 ± 9.8%
- Metabolic activity of cells, % ([2]; 38 μg/ml): 98.8 ± 7.1%
- Metabolic activity of cells, % ([2]; 75 μg/ml): 97.7 ± 7.5%
- Metabolic activity of cells, % ([2]; 150 μg/ml): 99.3 ± 3.2%
